Experimental data: US7413894B2, “TAG-1 and TAG-2 proteins and uses thereof” (University of Virginia Patent Foundation, priority 2003, dated 2008)

Columns and labels:
[1] = system: C1R-A3 targets for lysis by VMM18 CTL; experiment: CTL epitope reconstitution assay (four-hour 51Cr-release); type: cell-based; conditions: active at concentrations as low as
Protocol: VMM18-specific CTL have been described previously (Skipper et al., 1996, J Immunol 157, 5027-5033). CTL were expanded in bulk culture using anti-CD3 antibody (Greenberg and Cheever, 1985, Surv Immunol Res 4, 283-296) and cryopreserved in aliquots of 1-5×10^7 cells for use in epitope reconstitution assays.
Aliquots of each RP-HPLC fraction were tested for the presence of peptides that could sensitize C1R-A3 targets for lysis by VMM18 CTL in standard four-hour 51Cr-release assays as previously described (Hogan et al., 1998, Cancer Res 58, 5144-5150).

[2] = molecular target: T1, class I MHC molecule, HLA-A3 (Homo sapiens, UniProt P04439); experiment: Isolation of HLA-A3 associated peptides (immunoaffinity purification from VMM18 tumor cells); type: binding
T1 construct: endogenous in cells; host or cells: VMM18 melanoma tumor cells
Protocol: Immunoaffinity purification of class I MHC molecules from aliquots of 6-8×10^10 VMM18 tumor cells was performed as described (Hogan et al., 1998, Cancer Res 58, 5144-5150), except that the HLA-A3-specific monoclonal antibody GAP-A3, bound to protein A-Sepharose, was used to isolate the HLA-A3 molecules.
Peptide extracts were fractionated by RP-HPLC using an Applied Biosystems model 140B system. The extracts were concentrated by vacuum centrifugation and injected onto a Higgins (Mountain View, Calif.) C18 HAISIL column (2.1 mm×4 cm, 300 Å, 5 μm). The peptides were eluted with a gradient of acetonitrile/0.085% trifluoroacetic acid (TFA)* in 0.1% TFA/water, with the concentration of acetonitrile increasing from 0 to 9% (0 to 5 min), 9 to 36% (5 to 55 min), and 36 to 60% (55 to 62 min). Second dimension fractionations of selected first dimension (TFA) fractions were accomplished using the same gradient but with the substitution of heptafluorobutyric acid (HFBA) for TFA. A third dimension of RP-HPLC was achieved using an Eldex (Napa, Calif.) MicroPro pump, a homemade C18 microcapillary column and an Applied Biosystems model 785A UV absorbance detector. The column was made by packing a 27-cm bed of 10-μm C18 particles in a section of 285 μm o.d.×75 μm i.d. fused silica. […] In all RP-HPLC experiments, peptides were detected by monitoring UV absorbance at 214 nm.

T1 sequence (P04439 25-365): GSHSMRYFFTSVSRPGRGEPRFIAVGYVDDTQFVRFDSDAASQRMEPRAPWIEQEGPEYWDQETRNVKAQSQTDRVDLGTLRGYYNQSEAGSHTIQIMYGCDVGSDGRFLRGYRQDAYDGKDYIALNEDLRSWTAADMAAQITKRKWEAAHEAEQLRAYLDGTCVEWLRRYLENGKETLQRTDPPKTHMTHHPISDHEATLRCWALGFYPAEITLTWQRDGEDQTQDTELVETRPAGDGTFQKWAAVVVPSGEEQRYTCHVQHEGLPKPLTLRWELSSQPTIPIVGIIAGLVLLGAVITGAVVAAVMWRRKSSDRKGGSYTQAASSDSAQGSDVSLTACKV
T1 sequence (P61769 21-119 partner): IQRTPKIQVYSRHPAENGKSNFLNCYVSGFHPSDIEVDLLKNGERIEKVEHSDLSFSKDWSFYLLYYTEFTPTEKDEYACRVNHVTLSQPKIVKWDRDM

## RLSNRLLLR (listed as Homo sapiens)
[1]
  concentration at which the synthetic peptide is active in sensitizing C1R-A3 targets for lysis by VMM18 CTL: ≤ 10 pM
[2]
  binding to HLA-A3: binds to the class I MHC molecule, HLA-A3

## SQNFPGSQK (listed as Homo sapiens)
[1]
  concentration at which the synthetic peptide is active in sensitizing C1R-A3 targets for lysis by VMM18 CTL: ≤ 10 pM
